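These data come from cells grown in 96-well plates and exposed to compound for 48 hours at five concentrations. The concentration for 50% growth inhibition is given as GI50. TGI denotes the concentration required for complete inhibition of growth.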
Legend:
Assay in all cases: NCI tumour cell line growth inhibition, 48 h
[1] = test system: DMS 114 small cell lung
[2] = test system: DMS 273 small cell lung
[3] = test system: M19-MEL melanoma
[4] = test system: XF 498 CNS
[5] = test system: KM20L2 colon
[6] = test system: HOP-18 NSCLC
[7] = test system: P388 leukemia
[8] = test system: P388/ADR leukemia
[9] = test system: SN12K1 renal
[10] = test system: LXFL 529 NSCLC

Row | SMILES | TGI [1] [µM] | TGI [2] [µM] | TGI [3] [µM] | TGI [4] [µM] | TGI [5] [µM] | GI50 [2] [µM] | GI50 [6] [µM] | TGI [6] [µM] | GI50 [5] [µM] | GI50 [7] [µM] | TGI [7] [µM] | GI50 [8] [µM] | TGI [8] [µM] | GI50 [9] [µM] | TGI [9] [µM] | GI50 [4] [µM] | TGI [10] [µM]
1 | O=C1c2ccccc2C(=O)c2[nH]cnc21 | 86.9 | > 100 | 40.6 | 99.4 | – | – | – | – | – | – | – | – | – | – | – | – | –
2 | O=C1C(Cl)N(c2ccccc2Cl)C1c1c[nH]c2ccccc12 (stereo not drawn) | > 100 | – | > 100 | > 100 | > 100 | – | – | – | – | – | – | – | – | – | – | – | –
3 | C=C(C#N)C(=O)OCC(CC)CC.C=C(C#N)C(=O)OCC(CC)CC.CS(C)=O.CS(C)=O.Nc1c(N=Nc2ccc(-c3ccc(N=Nc4cc(S(=O)(=O)[O-])c5ccccc5c4N)cc3)cc2)cc(S(=O)(=O)[O-])c2ccccc12.[Pt+2] | – | > 100 | – | 40.9 | > 100 | 40.4 | 22 | 53.9 | > 100 | 29.6 | > 100 | 27.2 | > 100 | 19.7 | 40.1 | 21.1 | –
4 | COc1ccc2nc3cc(Cl)ccc3c(NC(C)CCCN(CCCl)CCCl)c2c1 (stereo not drawn) | 11.4 | 2.27 | 8.78 | 4.43 | 5.73 | – | – | – | – | – | – | – | – | – | – | – | 2.5

Source: PubChem BioAssay (NCI)
